Data as given in PMC3646166, “Comparison of Aqueous and 1-Octanol Solubility as well as Liquid–Liquid Distribution of Acyclovir Derivatives and Their Complexes with Hydroxypropyl-β-Cyclodextrin” (Journal of Solution Chemistry, 2013).
In brackets after ≈: the same amount, converted by molar mass. Read-outs that look alike come from different tables or passages of the source.

How the values were obtained:
[1] = Solubility in buffered cyclodextrin solutions (excess method of Higuchi and Connors); format: physicochemical; design: Stability constant K s of HP-β-CD complex: unit not given here
Description: Solubilities of the studied compounds was ensured according to the excess method of Higuchi and Connors. […] An excess amount of compounds 4-9 and 11-12 was added to 1.5 mL of aqueous phosphate buffer (concentration of buffer was equal 0.067 mol·dm^-3) solutions, (pH = 5.5 or 7.0) containing various concentration of HP-β-CD. The cyclodextrin concentration changed in the range of 10^-3 to 2 × 10^-2 mol·dm^-3. The suspensions were shaken in screw-capped plastic vials in a water bath thermostat with the volume of 60 dm^3 (home made apparatus by IChF PAN) at 25 and 37 °C. After 7 days equilibrium was reached and then the suspensions were centrifuged and the absorbance of the studied compounds was measured by UV-Vis spectrophotometry using a Shimadzu UV 2401 PC Spectrometer equipped with a thermostatically controlled cell compartment. During the measurement of absorbance, a buffered-solution of HP-β-CD, of the same concentration as in the studied solution, was always put as the reference. The average values of at least three independent determinations of the absorbance were used for calculation of the concentrations of the particular acyclovir derivatives. […] The main reason for the low solubility of tricyclic acyclovir derivatives with aromatic groups in water is the high hydrophobicity of these substituents. Use of cyclodextrins, which can include aromatic groups into their cavity, may enhance the aqueous solubility of such compounds. For this purpose we used several cyclodextrins and hydroxypropyl-β-cyclodextrin was chosen as being more efficient for complexating the tricyclic acyclovir derivatives. The investigations were performed, for chosen compounds, in various cyclodextrin HP-β-CD, buffered solutions (pH = 5.5 and 7.0) at 25 and 37 °C. […] Values of the correlation parameters a and b for tricyclic acyclovir derivatives complexed by cyclodextrin are presented in Table 3. […] The stability constants of the inclusion complexes between HP-β-CD and acyclovir derivatives have been calculated according to the Higuchi-Connors method using:3 K=b/C0(1-b) where C 0 is the solubility of the sample in solutions without cyclodextrin, obtained by determination of saturated solution concentration of acyclovir derivative solutions. […] These two values can differ, but in our study are very close to each other.

[2] = Extraction experiments, 1-octanol-water partition coefficient; format: physicochemical; conditions: 25 °C, read-out: Partition coefficient 1-octanol–water, P oc/w (converted)
Description: The equipment described above was also used for the determination of the 1-octanol-water partition coefficients. […] The partition coefficient was evaluated as:1 Poc/w=Coc/Cw where C oc and C w are the molar concentrations of the solute in the 1-octanol and water phases, respectively. The correctness of the P oc/w value of each compound was verified by checking the mass balance of the starting amount of the substance and the total amount of the substance partitioned between the two phases.

[3] = Solubility in water or 1-octanol (saturated solutions, UV-Vis); format: physicochemical; conditions: for solubility: thermodynamic from solid, water
Description: The sample of substance examined (10 mg or 80 mg for 6-Me-TACV) was placed in a glass ampoule and double-distilled, deionized water (Millipore, Elix 5 purifier), or pure anhydrous 1-octanol (Sigma 99 %) was added. To attain thermodynamic equilibrium, the solute and the solvent were mixed continuously for a minimum of 4 days at a speed of 25 rpm. After the experiment was completed, the sample was centrifuged at 40,000 rpm for 40 min at 25 ± 0.1 °C, the supernatant liquid was collected, diluted, and its concentration determined with a UV–Vis (Varian Carry IE) spectrophotometer. The experiments were repeated at least three times for each solubility.

[4] = design: method as in earlier work; conditions: human body ref 1; cited from earlier work
[5] = buffered HP-β-CD solutions, pH = 5.5, 25 °C
[6] = buffered HP-β-CD solutions, pH = 5.5, 37 °C
[7] = buffered HP-β-CD solutions, pH = 7.0, 25 °C
[8] = buffered HP-β-CD solutions, pH = 7.0, 37 °C
[9] = 25 °C (Table 1), read-out: Solubility in water, C w
[10] = water saturated with 1-octanol, 25 °C, read-out: Solubility in water saturated with 1-octanol, C woc
[11] = 35 °C, read-out: Aqueous solubility, C w
[12] = 45 °C, read-out: Aqueous solubility, C w

| Structure (SMILES) | Correlation parameter a (Eq. 2, Cs = a + b·CCD) [1, 5] | Correlation parameter b (Eq. 2, Cs = a + b·CCD) [1, 5] | Correlation parameter a (Eq. 2, Cs = a + b·CCD) [1, 6] | Correlation parameter b (Eq. 2, Cs = a + b·CCD) [1, 6] | Correlation parameter a (Eq. 2, Cs = a + b·CCD) [1, 7] | Correlation parameter b (Eq. 2, Cs = a + b·CCD) [1, 7] | Correlation parameter a (Eq. 2, Cs = a + b·CCD) [1, 8] | Correlation parameter b (Eq. 2, Cs = a + b·CCD) [1, 8] | Stability constant K s of HP-β-CD complex ([1]; pH = 5.5, 25 °C) | Stability constant K s of HP-β-CD complex ([1]; pH = 5.5, 37 °C) | Stability constant K s of HP-β-CD complex ([1]; pH = 7, 25 °C) | Stability constant K s of HP-β-CD complex ([1]; pH = 7, 37 °C) | logP at 2 days [2] | Solubility ratio in 1-octanol and water, C oc/C w ([3]; 25 °C) | Solubility ratio in 1-octanol saturated with water and water saturated with 1-octanol, C ocw/C woc ([3]; 25 °C) | solubility [3, 9] | solubility [3, 10] | solubility [3, 11] | solubility [3, 12] | further results |
| --- | --- | --- | --- | --- | --- | --- | --- | --- | --- | --- | --- | --- | --- | --- | --- | --- | --- | --- | --- | --- |
| O=c1c2ncn(COCCO)c2nc2[nH]ccn12 [Compound 4, 3,9-dihydro-3-[(2-hydroxyethoxy)methyl]-9-oxo-5H-imidazol[1,2-a]purine] | 2.64 × 10^−3 | 1.98 × 10^−2 | 5.15 × 10^−3 | 2.72 × 10^−2 | 2.48 × 10^−3 | 2.05 × 10^−2 | 4.79 × 10^−3 | 2.56 × 10^−2 | 8.0 (±1) dm·mol^−1 | 6.0 (±1) dm·mol^−1 | 8.0 (±1) dm·mol^−1 | 6.0 (±1) dm·mol^−1 | -0.86 | 0.046 | 0.157 | 3070 µM (≈ 765 µg/mL) | 2720 µM (≈ 678 µg/mL) | 5910 µM (≈ 1470 µg/mL) | 6750 µM (≈ 1680 µg/mL) |  |
| O=c1c2ncn(COCCO)c2nc2[nH]c(-c3ccc(-c4ccccc4)cc3)cn12 [Compound 9] | 2.18 × 10^−4 | 2.12 × 10^−2 | 5.03 × 10^−4 | 2.98 × 10^−2 | 2.65 × 10^−4 | 2.84 × 10^−2 | 5.95 × 10^−4 |  | 100 (±8) | 61 (±5) | 110 (±6) dm·mol^−1 | 68 (±4) | 0.491 | 8.90 | 3.10 | 229 µM (≈ 91.9 µg/mL) | 583 µM (≈ 234 µg/mL) | 554 µM (≈ 222 µg/mL) | 658 µM (≈ 264 µg/mL) |  |
| Cc1cn2c(=O)c3ncn(COCCO)c3nc2[nH]1 [Compound 5] |  |  |  |  |  |  |  |  |  |  |  |  | -0.688 | 0.173 | 0.274 | 18700 µM (≈ 4920 µg/mL) | 13100 µM (≈ 3450 µg/mL) | 26600 µM (≈ 7000 µg/mL) | 32400 µM (≈ 8530 µg/mL) |  |
| O=c1c2ncn(COCCO)c2nc2[nH]c(-c3ccccc3)cn12 [Compound 8] | 1.86 × 10^−4 | 2.22 × 10^−2 | 3.27 × 10^−4 | 3.57 × 10^−2 | 2.50 × 10^−4 | 2.60 × 10^−2 | 3.36 × 10^−4 | 3.60 × 10^−2 | 122 (±2) dm·mol^−1 | 113 (±10) | 107 (±8) | 105 (±6) dm·mol^−1 | 0.545 | 7.48 | 4.76 | 238 µM (≈ 77.4 µg/mL) | 334 µM (≈ 109 µg/mL) | 517 µM (≈ 168 µg/mL) | 728 µM (≈ 237 µg/mL) |  |
| O=c1c2ncn(COCCO)c2nc2[nH]c(-c3ccc(Br)cc3)cn12 [Compound 10] |  |  |  |  |  |  |  |  |  |  |  |  | 0.549 | 2.14 | 1.65 | 364 µM (≈ 147 µg/mL) | 412 µM (≈ 167 µg/mL) | 898 µM (≈ 363 µg/mL) | 1280 µM (≈ 517 µg/mL) |  |
| Nc1nc2c(ncn2COCCO)c(=O)[nH]1 [Compound 1, 9-[(2-hydroxyethoxy)methyl] guanine, reference compound] |  |  |  |  |  |  |  |  |  |  |  |  | -1.44 |  |  | 8070 µM (≈ 1820 µg/mL) | 7440 µM (≈ 1680 µg/mL) | 16200 µM (≈ 3650 µg/mL) | 19700 µM (≈ 4440 µg/mL) |  |
| CC(C)[C@H](N)C(=O)OCCOCn1cnc2c(=O)[nH]c(N)nc21 [valacyclovir] |  |  |  |  |  |  |  |  |  |  |  |  |  |  |  |  |  |  |  | Absorption relative to application of acyclovir [4]: four times higher |
| Cc1cn2c(=O)c3nc(Br)n(COCCO)c3nc2[nH]1 [Compound 6] | 1.18 × 10^−3 | 2.66 × 10^−2 | 2.35 × 10^−3 | 5.94 × 10^−2 | 1.03 × 10^−3 | 2.57 × 10^−2 | 2.01 × 10^−3 | 3.23 × 10^−2 | 27 (±2) dm·mol^−1 | 26 (±2) dm·mol^−1 | 26 (±2) dm·mol^−1 | 17 (±1) dm·mol^−1 | -0.108 | 0.108 | 0.816 | 2110 µM (≈ 722 µg/mL) | 1050 µM (≈ 360 µg/mL) | 2360 µM (≈ 807 µg/mL) | 2590 µM (≈ 886 µg/mL) |  |
| CC(C)(C)c1cn2c(=O)c3ncn(COCCO)c3nc2[nH]1 [Compound 7] |  |  |  |  |  |  |  |  |  |  |  |  | 0.616 | 5.16 | 2.62 | 3080 µM (≈ 940 µg/mL) | 3780 µM (≈ 1150 µg/mL) | 20400 µM (≈ 6230 µg/mL) | 31900 µM (≈ 9740 µg/mL) | Type of solubility diagram (solubility versus cyclodextrin concentration) ([1]; buffered HP-β-CD solutions): An type of solubility diagram |
| Nc1nc2c(nc(Br)n2COCCO)c(=O)[nH]1 [Compound 2, 8-bromo-9-[(2-hydroxyethoxy)methyl] guanine] |  |  |  |  |  |  |  |  |  |  |  |  | -0.264 | 0.430 | 0.802 | 1030 µM (≈ 313 µg/mL) | 859 µM (≈ 261 µg/mL) | 1900 µM (≈ 578 µg/mL) | 2490 µM (≈ 757 µg/mL) |  |
| Nc1nc(O)c2ncn(COC(CO)CO)c2n1 [Compound 3, 9-[(1,3-dihydroxy-2-propoxy)methyl]guanine, reference compound] |  |  |  |  |  |  |  |  |  |  |  |  | -1.77 |  |  | 12300 µM (≈ 3140 µg/mL) | 11000 µM (≈ 2810 µg/mL) | 21800 µM (≈ 5560 µg/mL) | 22900 µM (≈ 5840 µg/mL) |  |
| O=c1c2ncn(COCCO)c2nc2[nH]c(-c3ccc4ccccc4c3)cn12 [Compound 12] | 2.99 × 10^−5 | 0.88 × 10^−2 | 3.37 × 10^−5 | 0.93 × 10^−2 | 3.05 × 10^−5 | 0.94 × 10^−2 | 4.29 × 10^−5 | 1.29 × 10^−2 | 297 (±7) | 279 (±9) | 311 (±9) | 305 (±9) | 0.549 | 4.37 | 3.58 | 166 µM (≈ 62.3 µg/mL) | 191 µM (≈ 71.7 µg/mL) | 256 µM (≈ 96.1 µg/mL) | 265 µM (≈ 99.5 µg/mL) |  |
